The source of these data is US9834513B2, “Benzylamine derivatives” (KALVISTA PHARMACEUTICALS LIMITED, priority 2013, dated 2017).

Molecules are shown by their SMILES.

The target in one data set is trypsin (Homo sapiens, UniProt P07477). Put plainly: Determination of enzyme selectivity: trypsin. It is filed as biochemical. The settings on record: substrate at Km concentration. As for the experimental part: Human serine protease enzymes plasmin, thrombin, trypsin, Factor Xa and Factor XIIa were assayed for enzymatic activity using an appropriate fluorogenic substrate. Protease activity was measured by monitoring the accumulation of liberated fluorescence from the substrate over 5 minutes. The linear rate of fluorescence increase per minute was expressed as percentage (%) activity. The Km for the cleavage of each substrate was determined by standard transformation of the Michaelis-Menten equation.

Another data set relates to diabetic rats. The settings on record: cited from earlier work.
Another data set concerns the target Human KLK1 (Homo sapiens (Human), UniProt P06870). Briefly: Determination of the IC50 for KLK1. It is filed as biochemical. The settings on record: 37° C., fluorogenic substrate H-DVal-Leu-Arg-AFC. As for the experimental part:
KLK1 inhibitory activity in vitro was determined using standard published methods (see e.g. Johansen et al., Int. J. Tiss. Reac. 1986, 8, 185; Shori et al., Biochem. Pharmacol., 1992, 43, 1209; Stürzebecher et al., Biol. Chem. Hoppe-Seyler, 1992, 373, 1025). Human KLK1 (Callbiochem) was incubated at 37° C. with the fluorogenic substrate H-DVal-Leu-Arg-AFC and various concentrations of the test compound. Residual enzyme activity (initial rate of reaction) was determined by measuring the change in optical absorbance at 410 nm and the IC50 value for the test compound was determined.

The target of another data set is Human plasma kallikrein (Homo sapiens (Human), UniProt P03952). Put plainly: Determination of the IC50 for plasma kallikrein. The data set is classed as biochemical. The settings on record: 37° C., fluorogenic substrate H-DPro-Phe-Arg-AFC; read-out: IC50 (human PKal). How it is done: Human plasma kallikrein (Protogen) was incubated at 37° C. with the fluorogenic substrate H-DPro-Phe-Arg-AFC and various concentrations of the test compound. Residual enzyme activity (initial rate of reaction) was determined by measuring the change in optical absorbance at 410 nm and the IC50 value for the test compound was determined.
Chain of Human plasma kallikrein (P03952 391-638): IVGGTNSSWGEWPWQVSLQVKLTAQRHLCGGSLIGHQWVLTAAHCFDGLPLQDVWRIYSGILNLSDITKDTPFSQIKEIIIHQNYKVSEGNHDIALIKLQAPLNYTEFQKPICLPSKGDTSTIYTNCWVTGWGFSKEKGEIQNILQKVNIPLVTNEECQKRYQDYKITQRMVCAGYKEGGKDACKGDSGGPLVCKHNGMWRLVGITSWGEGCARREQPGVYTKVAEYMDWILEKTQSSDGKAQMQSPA
Chain of Human plasma kallikrein (P03952 20-390 partner): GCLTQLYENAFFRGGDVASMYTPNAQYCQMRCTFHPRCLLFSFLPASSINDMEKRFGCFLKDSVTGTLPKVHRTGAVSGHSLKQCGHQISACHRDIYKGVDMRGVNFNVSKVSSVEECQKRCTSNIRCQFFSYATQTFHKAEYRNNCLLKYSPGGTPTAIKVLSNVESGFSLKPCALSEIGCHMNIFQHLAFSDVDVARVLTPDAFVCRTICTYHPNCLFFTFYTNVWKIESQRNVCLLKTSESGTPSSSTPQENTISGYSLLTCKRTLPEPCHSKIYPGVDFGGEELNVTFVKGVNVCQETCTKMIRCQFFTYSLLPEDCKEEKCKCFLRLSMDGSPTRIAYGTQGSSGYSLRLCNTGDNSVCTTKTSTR

Chain of Human KLK1 (P06870 25-262): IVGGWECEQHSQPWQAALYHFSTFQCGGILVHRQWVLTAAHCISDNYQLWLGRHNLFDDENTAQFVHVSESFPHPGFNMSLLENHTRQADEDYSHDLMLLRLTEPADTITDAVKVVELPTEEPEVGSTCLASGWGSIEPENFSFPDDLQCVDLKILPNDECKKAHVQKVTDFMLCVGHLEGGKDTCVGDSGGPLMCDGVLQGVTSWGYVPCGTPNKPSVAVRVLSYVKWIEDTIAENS

What is called IC50 is the midpoint of a concentration-inhibition curve. As to `NCc1ccc(CNC(=O)c2cn(Cc3ccccc3)nc2-c2ccccc2)cc1` [Example 84, 1-Benzyl-3-phenyl-1H-pyrazole-4-carboxylic acid 4-aminomethyl-benzylamide], the half-inhibitory concentration (IC50) against trypsin is > 40 µM. For the molecule `N=C(N)c1ccc(CNC(=O)c2cnn(Cc3ccccc3)c2)cc1` [ASP-440], the “retinal vascular permeability and retinal blood flow abnormalities” value with diabetic rats is reported as “ameliorated”. For `Cc1cc(C(=O)NCc2ccc(CN)cc2)c(C)n1Cc1csc(-c2ccoc2)n1` [Example 39, 2,5-Dimethyl-1-(2-furan-3-yl-thiazol-4-ylmethyl)-1H-pyrrole-3-carboxylic acid 4-aminomethyl-benzylamide], the figures for the concentration for half-maximal inhibition (IC50) against Human KLK1 and on Human plasma kallikrein were > 10 µM and 1.09 µM, respectively. For `Cc1cc(C(=O)NCc2ccc(CN)cc2)c(C)n1Cc1ccc(-c2ccncc2)s1` [Example 21, 2,5-Dimethyl-1-(5-pyridin-4-yl-thiophen-2-ylmethyl)-1H-pyrrole-3-carboxylic acid 4-aminomethyl-benzylamide] the same measures were 7.5 µM and 4.52 µM. For `Cc1cc(C(=O)NCc2ccc(CN)cc2)c(C)n1Cc1cc(-c2ccccc2)cs1` [Example 9, 2,5-Dimethyl-1-(4-phenyl-thiophen-2-ylmethyl)-1H-pyrrole-3-carboxylic acid 4-aminomethyl-benzylamide] the same measures were > 10 µM and 0.543 µM. Consider `NCc1ccc(CNC(=O)c2cn(Cc3csc(-c4ccccc4)n3)nc2C(F)(F)F)cc1` [Example 83, 1-(2-Phenyl-thiazol-4-ylmethyl)-3-trifluoromethyl-1H-pyrazole-4-carboxylic acid 4-aminomethyl-benzylamide], for which half-maximal inhibition against trypsin (IC50) was put at 26.6 µM. The same measure, in the same setting: for `Cc1cc(C(=O)NCc2ccc(CN)cc2)c(C)n1Cc1csc(-c2ccccc2)n1` [Example 1, 2,5-Dimethyl-1-(2-phenyl-thiazol-4-ylmethyl)-1H-pyrrole-3-carboxylic acid 4-aminomethyl-benzylamide] the value was > 40 µM; for `Cc1cc(CN)ccc1CNC(=O)c1cc(C)n(Cc2csc(-c3ccccc3)n2)c1C` [Example 2, 2,5-Dimethyl-1-(2-phenyl-thiazol-4-ylmethyl)-1H-pyrrole-3-carboxylic acid 4-aminomethyl-2-methyl-benzylamide], > 40 µM.
